In the first test the test system is HCV. The experiment in a line: Assay of anti-HCV activity in HCV-infected Huh7.5 cells (intracellular HCV RNA by one-step quantitative RT-PCR). The conditions noted are these: Hepatitis C virus, Huh7.5, 96 h, read-out: inhibitory activities (inhibitory levels of the compounds against HCV replication). It is filed as cell-based. As to the method:
100 μL Huh7.5 cells were seeded at a density of 1×10^5/mL in a 96-well cell culture plate and incubated in an incubator at 37° C., 5% CO2 and saturated humidity for 6 hrs. Then, while infecting Huh7.5 cells with viral solution containing HCV virus particles, the compounds of the present invention (including all specific compounds listed herein) were added at a concentration of 1 μM, respectively. After continuing incubation for 96 hrs, the total intracellular RNA was extracted separately, and the content of intracellular HCV RNA was measured by one-step quantitative RT-PCR, compared with the RNA level of the viral control, and the inhibition rate of the compounds against HCV was calculated.
As for `CN(CCN1CC1)c1ccc(C(F)(F)F)c(CN2CCN(C(c3ccc(Cl)cc3)c3ccc(Cl)cc3)CC2)c1` [Compound 64, N-(2-(aziridin-1-yl)ethyl)-3-((4-(bis(4-chlorophenyl)methyl)piperazin-1-yl)methyl)-N-methyl-4-(trifluoromethyl)aniline], the inhibition at 1 µM was > 75%.

Still in this test, the particulars now being: Hepatitis C virus; compound at 1 μM; Huh7.5 cells infected with HCV; 96 hrs; intracellular HCV RNA vs viral control; read-out: inhibitory activities (inhibitory levels of the compounds against HCV replication).
As to `CN1CCCN(c2ccc(C(F)(F)F)c(CN3CCN(C(c4ccc(Oc5ccccc5)cc4)c4ccccn4)CC3)c2)CC1` (centres unmarked) [Compound 100, 1-methyl-4-[3-({4-[(4-phenoxyphenyl)(pyridin-2-yl)methyl]piperazin-1-yl}methyl)-4-(trifluoromethyl)phenyl]-1,4-diazepane], the inhibition at 1 µM lay in the range of 50 to 75%.
Take `CN(C)C1CCN(c2ccc(C#N)c(CN3CCN(C(c4ccc(Cl)cc4)c4ccc(Cl)cc4)CC3)c2)C1` (centres unmarked) [Compound 85, 2-((4-(bis(4-chlorophenyl)methyl)piperazin-1-yl)methyl)-4-(3-(dimethylamino)pyrrolidin-1-yl)benzonitrile]: the inhibition at 1 µM was > 75%.
With `CN1CCCN(c2ccc(C#N)c(CN3CCN(C(c4ccccc4)c4ccc(Cl)cc4)CC3)c2)CC1` (centres unmarked) [Compound 88, 2-((4-((4-chlorophenyl)(phenyl)methyl)piperazin-1-yl)methyl)-4-(4-methyl-1,4-diazepan-1-yl)benzonitrile], the inhibition at 1 µM is > 75%.
Still for that read-out and setting: under `CCN1CCCN(c2ccc(C(F)(F)F)c(CN3CCN(c4ccc(C)c(Cl)c4)CC3)c2)CC1` [Compound 35, 1-(3-((4-(3-chloro-4-methylphenyl)piperazin-1-yl)methyl)-4-(trifluoromethyl)phenyl)-4-ethyl-1,4-diazepane] stands > 75%; under `CN1CCN(c2ccc(C#N)c(CN3CCN(C(c4ccc(C(F)(F)F)cc4)c4cnccn4)CC3)c2)CC1` (centres unmarked) [Compound 99], 50 to 75%.
Still for that read-out and setting: under `CN(C)CCN(C)c1ccc(C(F)(F)F)c(CN2CCN(C(c3ccc(C4CC4)cc3)c3ccc(C4CC4)cc3)CC2)c1` [Compound 49, N^1-(3-((4-(bis(4-cyclopropylphenyl)methyl)piperazin-1-yl)methyl)-4-(trifluoromethyl)phenyl)-N^1,N^2,N^2-trimethylethan-1,2-diamine] stands > 75%.
The same measure, in the same setting: next, `CN(C)CCN(C)c1ccc(C#N)c(CN2CCN(C(c3ccc(Cl)cc3)c3ccc(Cl)cc3)CC2)c1` [Compound 74, 2-((4-(bis(4-chlorophenyl)methyl)piperazin-1-yl)methyl)-4-((2-(dimethylamino)ethyl)(methyl)amino)benzonitrile]: > 75%.
For the compound `CN(C)CCN(C)c1ccc(C#N)c(CN2CCN(C(c3ccc(Br)cc3)c3ccc(Br)cc3)CC2)c1` [Compound 83, 2-((4-(bis(4-bromophenyl)methyl)piperazin-1-yl)methyl)-4-((2-(dimethylamino)ethyl)(methyl)amino)benzonitrile], the inhibition at 1 µM is > 75%.
Same read-out and setting: next, `CCN(C)CCN(C)c1ccc(C#N)c(CN2CCN(C(C)c3ccc(Cl)cc3)CC2)c1` (centres unmarked) [Compound 13, 2-((4-(1-(4-chlorophenyl)ethyl)piperazin-1-yl)methyl)-4-((2-(ethyl(methyl)amino)ethyl)(methyl)amino)benzonitrile]: > 75%; `CN1CCCN(c2ccc(C(F)(F)F)c(CN3CCN(c4ccc(Cl)cc4)CC3)c2)CC1` [Compound 23, 1-(3-((4-(4-chlorophenyl)piperazin-1-yl)methyl)-4-(trifluoromethyl)phenyl)-4-methyl-1,4-diazepane]: > 75%; `CN1CCCN(c2ccc(C#N)c(CN3CCN(C(c4ccc(F)cc4)c4ccc(F)cc4)CC3)c2)CC1` [Compound 76, 2-((4-(bis(4-fluorophenyl)methyl)piperazin-1-yl)methyl)-4-(4-methyl-1,4-diazepan-1-yl)benzonitrile]: > 75%.
The same measure, in the same setting: under `CN(CC1CCCCN1C)c1ccc(C(F)(F)F)c(CN2CCN(c3ccc(Cl)cc3)CC2)c1` (centres unmarked) [Compound 21, 3-((4-(4-chlorophenyl)piperazin-1-yl)methyl)-N-methyl-N-((1-methylpiperidin-2-yl)methyl)-4-(trifluoromethyl)aniline] stands > 75%; under `COc1ccc(C(c2ccc(OC)cc2)N2CCN(Cc3cc(N4CCCN(C)CC4)ccc3C#N)CC2)cc1` [Compound 75, 2-((4-(bis(4-methoxyphenyl)methyl)piperazin-1-yl)methyl)-4-(4-methyl-1,4-diazepan-1-yl)benzonitrile], > 75%; under `CC(c1ccc(Cl)cc1)N1CCN(Cc2cc(N(C)CCN(C)C)ccc2C(F)(F)F)CC1` (centres unmarked) [Compound 9, N^1-(3-((4-(1-(4-chlorophenyl)ethyl)piperazin-1-yl)methyl)-4-(trifluoromethyl)phenyl)-N^1,N^2,N^2-trimethylethan-1,2-diamine], > 75%.
The same measure, in the same setting: under `CN(CCN1CCC1)c1ccc(C(F)(F)F)c(CN2CCN(C(c3ccc(Cl)cc3)c3ccc(Cl)cc3)CC2)c1` [Compound 50, N-(2-(azetidin-1-yl)ethyl)-3-((4-(bis(4-chlorophenyl)methyl)piperazin-1-yl)methyl)-N-methyl-4-(trifluoromethyl)aniline] stands 50 to 75%.
`CC1CN(C(c2ccc(F)cc2)c2ccc(F)cc2)CCN1Cc1cc(N2CCCN(C)CC2)ccc1C(F)(F)F` (centres unmarked) [Compound 60, 1-(3-((4-(bis(4-fluorophenyl)methyl)-2-methylpiperazin-1-yl)methyl)-4-(trifluoromethyl)phenyl)-4-methyl-1,4-diazepane]: the inhibition at 1 µM was > 75%.
The same measure, in the same setting: next, `CN(C)CCN(C)c1ccc(C(F)(F)F)c(CN2CCN(C(c3ccc(C(F)(F)F)cc3)c3ccc(C(F)(F)F)cc3)CC2)c1` [Compound 53, N^1-(3-((4-(bis(4-(trifluoromethyl)phenyl)methyl)piperazin-1-yl)methyl)-4-(trifluoromethyl)phenyl)-N^1,N^2,N^2-trimethylethan-1,2-diamine]: > 75%.
Still for that read-out and setting: next, `CN1CCCN(c2ccc(C(F)(F)F)c(CN3CCN(C(c4ccc(Br)cc4)c4ccc(Br)cc4)CC3)c2)CC1` [Compound 47, 1-(3-((4-(bis(4-bromophenyl)methyl)piperazin-1-yl)methyl)-4-(trifluoromethyl)phenyl)-4-methyl-1,4-diazepane]: > 75%; `CN1CCCN(c2ccc(C#N)c(CN3CCN(C(c4ccc(Cl)cc4)c4ccc(Cl)cc4)CC3)c2)CC1` [Compound 77, 2-((4-(bis(4-chlorophenyl)methyl)piperazin-1-yl)methyl)-4-(4-methyl-1,4-diazepan-1-yl)benzonitrile]: > 75%; `CN1CCN(c2ccc(C#N)c(CN3CCN(C(c4ccc(Cl)cc4)c4ccc(Cl)cc4)CC3)c2)CC1` [Compound 80, 2-((4-(bis(4-chlorophenyl)methyl)piperazin-1-yl)methyl)-4-(4-methylpiperazin-1-yl)benzonitrile]: > 75%.
As for `Cc1cc(C(c2ccc(Cl)c(C)c2)N2CCN(Cc3cc(N(C)CCN(C)C)ccc3C#N)CC2)ccc1Cl` [Compound 95, 2-({4-[bis(4-chloro-3-methylphenyl)methyl]piperazin-1-yl}methyl)-4-{[2-(dimethylamino)ethyl](methyl)amino)benzonitrile], the inhibition at 1 µM is > 75%.
Turning to `CN1CCCN(c2ccc(C(F)(F)F)c(CN3CCN(C(c4ccccc4)c4ccc(F)cc4)CC3)c2)CC1` (centres unmarked) [Compound 51, 1-(3-((4-((4-fluorophenyl)(phenyl)methyl)piperazin-1-yl)methyl)-4-(trifluoromethyl)phenyl)-4-methyl-1,4-diazepane], the inhibition at 1 µM is > 75%.
Turning to `CN1CCCN(c2ccc(C(F)(F)F)c(CN3CCN(c4ccc(Cl)c(Cl)c4)CC3)c2)CC1` [Compound 109, 1-(3-((4-(3,4-dichlorophenyl)piperazin-1-yl)methyl)-4-(trifluoromethyl)phenyl)-4-methyl-1,4-diazepane], the inhibition at 1 µM is > 75%.
The same measure, in the same setting: under `CC(c1ccc(F)c(Cl)c1)N1CCN(Cc2cc(N3CCCN(C)CC3)ccc2C(F)(F)F)CC1` (centres unmarked) [Compound 3, 1-(3-((4-(1-(3-chloro-4-fluorophenyl)ethyl)piperazin-1-yl)methyl)-4-(trifluoromethyl)phenyl)-4-methyl-1,4-diazepane] stands > 75%.
Same read-out and setting: next, `CN1CCCN(c2ccc(C(F)(F)F)c(CN3CCN(C(c4ccc(Cl)cc4)c4ccccn4)CC3)c2)CC1` (centres unmarked) [Compound 56, 1-(3-((4-((4-chlorophenyl)(pyridin-2-yl)methyl)piperazin-1-yl)methyl)-4-(trifluoromethyl)phenyl)-4-methyl-1,4-diazepane]: 50 to 75%; `CC(C)c1ccc(C(c2ccc(C(C)C)cc2)N2CCN(Cc3cc(N(C)CCN(C)C)ccc3C#N)CC2)cc1` [Compound 81, 2-((4-(bis(4-isopropylphenyl)methyl)piperazin-1-yl)methyl)-4-((2-(dimethylamino)ethyl)(methyl)amino)benzonitrile]: > 75%.
Still for that read-out and setting: next, `N#Cc1ccc(NCCCn2cccc2)cc1CN1CCN(Cc2ccc(Cl)c(Cl)c2)CC1` [Compound 18, 4-((3-(1H-pyrrol-1-yl)propyl)amino)-2-((4-(3,4-dichlorobenzyl)piperazin-1-yl)methyl)benzonitrile]: > 75%.
Turning to `CCCN(CCN(C)C)c1ccc(C(F)(F)F)c(CN2CCN(C(c3ccc(Cl)cc3)c3ccc(Cl)cc3)CC2)c1` [Compound 59, N^1-(3-((4-(bis(4-chlorophenyl)methyl)piperazin-1-yl)methyl)-4-(trifluoromethyl)phenyl)-N^2,N^2-dimethyl-N^1-propylethan-1,2-diamine], the inhibition at 1 µM is > 75%.

Source of the values: patent US11939307B2, “Phenylmethyl-piperazine derivatives and antiviral uses thereof” (INSTITUTE OF MEDICINAL BIOTECHNOLOGY, CHINESE ACADEMY OF …, priority 2019, dated 2024).
